Reference: US20250145635A1, “COMPOUND CONTAINING BIS(AZANYLYLIDENE) SULFONYL STRUCTURE AND USE THEREOF IN MEDICINE” (SCINNOHUB PHARMACEUTICAL CO., LTD., priority 2021, published 2025)

Molecular target: recombinant human PKR enzyme (Homo sapiens (Human), UniProt P30613)
Experiment: Pyruvate kinase (PKR) activity experiment
Assay type: biochemical
Details: activation of recombinant human PKR enzyme
Procedure: • 1). A recombinant human PKR enzyme solution was formulated at a concentration of 60 ng/well (a 20 μL reaction system), and 5 μL of the solution was added into each well of a black transparent bottom 384-well plate. • 2). Compound solutions were formulated at different concentrations, with the final concentrations of 1000/300/100 nM (containing 1% DMSO). Each 5 μL of the compound solution was added into the plate in item 3.1 and mixed well. The plate was incubated at room temperature for 10 min. • 3). A reaction system was formulated according to the instructions of a kit (as shown in the table below), and 10 μL of the reaction system was added into each well of the 384-well plate, and mixed uniformly with the solution in item 3.2.
• 4). The 384-well plate was placed on a microplate reader to detect the fluorescence value at 540/590 nm, where the value was read every 2 minutes and the detection was conducted continuously for 1 hour. • 5). The Slope value within the detection time was calculated, and the 0.1% DMSO well was used as a control well to calculate a compound activation rate.
[formula] • 6). Fitting dose-effect curve
With the log value of the compound concentration as the X axis and the percentage activation rate as the Y axis, a dose-effect curve was fitted with the log(agonist) vs. response-variable slope of the analysis software GraphPad Prism 5, and the AC50 value of the activity of each compound against PKR was obtained.

Chain of recombinant human PKR enzyme (P30613 whole entry): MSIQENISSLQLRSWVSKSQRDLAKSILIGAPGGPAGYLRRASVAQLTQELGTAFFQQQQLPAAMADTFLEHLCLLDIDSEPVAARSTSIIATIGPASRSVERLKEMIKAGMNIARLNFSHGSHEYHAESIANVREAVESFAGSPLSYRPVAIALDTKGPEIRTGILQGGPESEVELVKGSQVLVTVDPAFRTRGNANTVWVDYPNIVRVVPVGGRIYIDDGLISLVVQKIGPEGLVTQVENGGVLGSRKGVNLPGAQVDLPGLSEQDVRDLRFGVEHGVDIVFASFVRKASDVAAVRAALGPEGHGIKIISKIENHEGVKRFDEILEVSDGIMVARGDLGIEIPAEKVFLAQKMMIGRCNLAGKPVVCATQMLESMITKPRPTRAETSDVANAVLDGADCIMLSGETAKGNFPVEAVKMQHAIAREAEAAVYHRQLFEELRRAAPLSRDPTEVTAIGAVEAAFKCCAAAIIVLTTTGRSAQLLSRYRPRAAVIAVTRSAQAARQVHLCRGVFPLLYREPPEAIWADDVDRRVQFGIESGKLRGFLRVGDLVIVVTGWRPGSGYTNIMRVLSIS

Row | Compound | AC50
1 | O=C([C@H](CO)c1ccccc1)N1CC(=C2CN(S(=O)(=O)c3ccc(OC(F)F)cc3)C2)C1 [Compound 7, (S)-1-(1′-((4-(difluoromethoxy)phenyl)sulfonyl)-1′,4′-dihydro-2H,2′H-[3,3′-diazetidinylidene]-1(4H)-yl)-3-hydroxy-2-phenylpropan-1-one] | 0.101 to 0.3 µM
2 | O=C([C@H](CO)c1ccccc1)N1CC(=C2CN(S(=O)(=O)c3ccc(OC(F)(F)F)cc3)C2)C1 [Compound 9, (S)-3-hydroxy-2-phenyl-1-(1′-((4-(trifluoromethoxy)phenyl)sulfonyl)-1′,4′-dihydro-2H,2′H-[3,3′-diazetidinylidene]-1(4H)-yl)propan-1-one] | 0.101 to 0.3 µM
3 | O=C([C@H](CO)c1ccccc1)N1CC(=C2CN(S(=O)(=O)c3ccc(OC(F)F)c(F)c3)C2)C1 [Compound 11] | 0.101 to 0.3 µM
4 | O=C(C(O)c1ccc2c(c1)NCCO2)N1CC(=C2CN(S(=O)(=O)c3ccc(OC(F)F)cc3)C2)C1 (stereo not shown) [Compound 13, 1-(1′-((4-(difluoromethoxy)phenyl)sulfonyl)-1′,4′-dihydro-2H,2′H-[3,3′-diazetidinylidene]-1(4H)-yl)-2-(3,4-dihydro-2H-benzo[b][1,4]oxazin-6-yl)-2-hydroxyethan-1-one] | < 0.1 µM
5 | CC(C)(O)C(C(=O)N1CC(=C2CN(S(=O)(=O)c3ccc(OC(F)F)cc3)C2)C1)c1ccccc1 (stereo not shown) [Compound 17, 1-(1′-((4-(difluoromethoxy)phenyl)sulfonyl)-1′,4′-dihydro-2H,2′H-[3,3′-diazetidinylidene]-1(4H)-yl)-3-hydroxy-3-methyl-2-phenylbutan-1-one] | 0.3 to 1 µM
6 | NC(C(=O)N1CC(=C2CN(S(=O)(=O)c3ccc(OC(F)F)cc3)C2)C1)c1ccc(F)cc1 (stereo not shown) [Compound 22, 2-amino-1-(1′-((4-(difluoromethoxy)phenyl)sulfonyl)-1′,4′-dihydro-2H,2′H-[3,3′-diazetidinylidene]-1(4H)-yl)-2-(4-fluorophenyl)ethan-1-one] | 0.3 to 1 µM
7 | NC(C(=O)N1CC(=C2CN(S(=O)(=O)c3ccc(OC(F)F)cc3)C2)C1)c1cccc(C(F)(F)F)c1 (stereo not shown) [Compound 23, 2-amino-1-(1′-((4-(difluoromethoxy)phenyl)sulfonyl)-1′,4′-dihydro-2H,2′H-[3,3′-diazetidinylidene]-1(4H)-yl)-2-(3-(trifluoromethyl)phenyl)ethan-1-one] | 0.3 to 1 µM
8 | Cc1nc2c(C(O)C(=O)N3CC(=C4CN(S(=O)(=O)c5ccc(OC(F)F)cc5)C4)C3)cccc2s1 (stereo not shown) [Compound 24, 1-(1′-((4-(difluoromethoxy)phenyl)sulfonyl)-1′,4′-dihydro-2H,2′H-[3,3′-diazetidinylidene]-1(4H)-yl)-2-hydroxy-2-(2-methylbenzo[d]thiazol-4-yl)ethan-1-one] | 0.3 to 1 µM
9 | O=C([C@H](CO)c1ccccc1)N1CC(=C2CN(S(=O)(=O)c3ccc(-c4ncco4)c(F)c3)C2)C1 [Compound 27, (S)-1-(1′-((3-fluoro-4-(oxazol-2-yl)phenyl)sulfonyl)-1′,4′-dihydro-2H,2′H-[3,3′-diazetidinylidene]-1(4H)-yl)-3-hydroxy-2-phenylpropan-1-one] | 0.3 to 1 µM
10 | O=C(C(CO)c1ccc2ccccc2c1)N1CC(=C2CN(S(=O)(=O)c3ccc4ncsc4c3)C2)C1 (stereo not shown) [Compound 32, 1-(1′-(benzo[d]thiazol-6-ylsulfonyl)-1′,4′-dihydro-2H,2′H-[3,3′-diazetidinylidene]-1(4H)-yl)-3-hydroxy-2-(naphthalene-2-yl)propan-1-one] | < 0.1 µM
11 | CN1CCN(c2cccc(C(CO)C(=O)N3CC(=C4CN(S(=O)(=O)c5ccc6ncsc6c5)C4)C3)c2)CC1 (stereo not shown) [Compound 33] | 0.3 to 1 µM
12 | Cn1cc(-c2ccc(C(CO)C(=O)N3CC(=C4CN(S(=O)(=O)c5ccc6ncsc6c5)C4)C3)cc2)cn1 (stereo not shown) [Compound 34, 1-(1′-(benzo[d]thiazol-6-ylsulfonyl)-1′,4′-dihydro-2H,2′H-[3,3′-diazetidinylidene]-1(4H)-yl)-3-hydroxy-2-(4-(1-methyl-1H-pyrazol-4-yl)phenyl)propan-1-one] | 0.3 to 1 µM
13 | Cc1nc2ccc(S(=O)(=O)N3CC(=C4CN(C(=O)[C@H](CO)c5ccccc5)C4)C3)cc2s1 [Compound 35, (S)-3-hydroxy-1-(1′-((2-methylbenzo[d]thiazol-6-yl)sulfonyl)-1′,4′-dihydro-2H,2′H-[3,3′-diazetidinylidene]-1(4H)-yl)-2-phenylpropan-1-one] | < 0.1 µM
14 | O=C(N1CC(=C2CN(S(=O)(=O)c3ccc(OC(F)F)cc3)C2)C1)C1(c2ccccc2)CCOC1 (stereo not shown) [Compound 37, (1′-((4-(difluoromethoxy)phenyl)sulfonyl)-1′,4′-dihydro-2H,2′H-[3,3′-diazetidinylidene]-1(4H)-yl)(3-phenyltetrahydrofuran-3-yl)methanone] | < 0.1 µM
15 | CNCC(C(=O)N1CC(=C2CN(S(=O)(=O)c3ccc4ncsc4c3)C2)C1)c1ccc(F)c(Cl)c1 (stereo not shown) [Compound 38, 1-(1′-(benzo[d]thiazol-6-ylsulfonyl)-1′,4′-dihydro-2H,2′H-[3,3′-diazetidinylidene]-1(4H)-yl)-2-(3-chloro-4-fluorophenyl)-3-(methylamino)propan-1-one] | 0.3 to 1 µM
16 | O=C1COc2ccc(S(=O)(=O)N3CC(=C4CN(C(=O)[C@H](CO)c5ccccc5)C4)C3)cc2N1 [Compound 40, (S)-6-((1′-(3-hydroxy-2-phenylpropionyl)-1′,4′-dihydro-2H,2′H-[3,3′-diazetidinylidene]-1(4H)-yl)sulfonyl)-2H-benzo[b][1,4]oxazine-3(4H)-one] | 0.101 to 0.3 µM
17 | CN1C(=O)COc2ccc(S(=O)(=O)N3CC(=C4CN(C(=O)[C@H](CO)c5ccccc5)C4)C3)cc21 [Compound 41, (S)-6-((1′-(3-hydroxy-2-phenylpropionyl)-1′,4′-dihydro-2H,2′H-[3,3′-diazetidinylidene]-1(4H)-yl)sulfonyl)-4-methyl-2H-benzo[b][1,4]oxazine-3(4H)-one] | 0.3 to 1 µM

Next, values leading:

Row | AC50 | Compound
18 | 0.101 to 0.3 µM | O=C([C@H](CO)c1ccccc1)N1CC(=C2CN(S(=O)(=O)c3ccc(F)cc3)C2)C1 [Compound 10]
19 | < 0.1 µM | O=C([C@H](CO)c1ccccc1)N1CC(=C2CN(S(=O)(=O)c3ccc4c(c3)NCCO4)C2)C1 [Compound 12, (S)-1-(1′-((3,4-dihydro-2H-benzo[b][1,4]oxazin-6-yl)sulfonyl)-1′,4′-dihydro-2H,2′H-[3,3′-diazetidinylidene]-1(4H)-yl)-3-hydroxy-2-phenylpropan-1-one]
20 | 0.3 to 1 µM | CNCC(C(=O)N1CC(=C2CN(S(=O)(=O)c3ccc4c(c3)OCCO4)C2)C1)c1cccc(OC)c1 (stereo not shown) [Compound 15, 1-(1′-((2,3-dihydrobenzo[b][1,4]dioxin-6-yl)sulfonyl)-1′,4′-dihydro-2H,2′H-[3,3′-diazetidinylidene]-1(4H)-yl)-2-(3-methoxyphenyl)-3-(methylamino)propan-1-one]
21 | 0.101 to 0.3 µM | O=C(C(CO)c1ccc(F)cc1)N1CC(=C2CN(S(=O)(=O)c3ccc(OC(F)F)cc3)C2)C1 (stereo not shown) [Compound 16, 1-(1′-((4-(difluoromethoxy)phenyl)sulfonyl)-1′,4′-dihydro-2H,2′H-[3,3′-diazetidinylidene]-1(4H)-yl)-2-(4-fluorophenyl)-3-hydroxypropan-1-one]
22 | 0.101 to 0.3 µM | O=C([C@H](CO)c1ccccc1)N1CC(=C2CN(S(=O)(=O)c3cc(F)c4c(c3)OCCO4)C2)C1 [Compound 20, (S)-1-(1′-((8-fluoro-2,3-dihydrobenzo[b][1,4]dioxin-6-yl)sulfonyl)-1′,4′-dihydro-2H,2′H-[3,3′-diazetidinylidene]-1(4H)-yl)-3-hydroxy-2-phenylpropan-1-one]
23 | < 0.1 µM | O=C([C@H](CO)c1ccc(F)cc1)N1CC(=C2CN(S(=O)(=O)c3ccc4ncsc4c3)C2)C1 [Compound 25, (S)-1-(1′-(benzo[d]thiazol-6-ylsulfonyl)-1′,4′-dihydro-2H,2′H-[3,3′-diazetidinylidene]-1(4H)-yl)-2-(4-fluorophenyl)-3-hydroxypropan-1-one]
24 | 0.3 to 1 µM | CNCC(C(=O)N1CC(=C2CN(S(=O)(=O)c3ccc4c(c3)OCCO4)C2)C1)c1ccc(F)c(Cl)c1OC (stereo not shown) [Compound 28]
25 | < 0.1 µM | O=C([C@H](CO)c1ccc(F)cc1)N1CC(=C2CN(S(=O)(=O)c3ccc4c(c3)OCCO4)C2)C1 [Compound 30, (S)-1-(1′-((2,3-dihydrobenzo[b][1,4]dioxin-6-yl)sulfonyl)-1′,4′-dihydro-2H,2′H—[3,3′-diazetidinylidene]-1(4H)-yl)-2-(4-fluorophenyl)-3-hydroxypropan-1-one]
26 | 0.3 to 1 µM | O=C([C@@H](CO)c1ccc(F)cc1)N1CC(=C2CN(S(=O)(=O)c3ccc4c(c3)OCCO4)C2)C1 [Compound 31, (R)-1-(1′-((2,3-dihydrobenzo[b][1,4]dioxin-6-yl)sulfonyl)-1′,4′-dihydro-2H,2′H-[3,3′-diazetidinylidene]-1(4H)-yl)-2-(4-fluorophenyl)-3-hydroxypropan-1-one]
27 | 0.3 to 1 µM | O=C(C(CO)c1ccc(F)cc1)N1CC(=C2CN(S(=O)(=O)c3ccc4c(c3)OC(F)(F)O4)C2)C1 (stereo not shown) [Compound 36, 1-(1′-((2,2-difluorobenzo[d][1,3]dioxolan-5-yl)sulfonyl)-1′,4′-dihydro-2H,2′H-[3,3′-diazetidinylidene]-1(4H)-yl)-2-(4-fluorophenyl)-3-hydroxypropan-1-one]
28 | < 0.1 µM | CN1CCOc2ccc(S(=O)(=O)N3CC(=C4CN(C(=O)[C@H](CO)c5ccccc5)C4)C3)cc21 [Compound 39, (S)-3-hydroxy-1-(1′-((4-methyl-3,4-dihydro-2H-benzo[b][1,4]oxazin-6-yl)sulfonyl)-1′,4′-dihydro-2H,2′H-[3,3′-diazetidinylidene]-1(4H)-yl)-2-phenylpropan-1-one]
